Source: the supplement of paper PMC10307832

Legend:
Assay in all cases: relative viability (nuclei count vs DMSO), 5 days (fraction); higher = more cells survive
AZD5582 + Tozasertib = compound: C[C@@H](C(=O)N[C@@H](C1CCCCC1)C(=O)N2CCC[C@H]2C(=O)N[C@@H]3[C@@H](CC4=CC=CC=C34)OCC#CC#CCO[C@@H]5CC6=CC=CC=C6[C@@H]5NC(=O)[C@@H]7CCCN7C(=O)[C@H](C8CCCCC8)NC(=O)[C@H](C)NC)NC [AZD5582] + Cc1cc(Nc2cc(N3CCN(C)CC3)nc(Sc3ccc(NC(=O)C4CC4)cc3)n2)n[nH]1 [Tozasertib] (partner 0.1 µM)
Outline: (§1)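 Lung cancer cell lines, seeded in 1536-well plates, were treated the following day by pin tool with a single drug or with five library-drug doses (not always all listed) in √10 steps on top of a fixed anchor-drug dose. Cells were fixed and nuclei stained in one step after 5 days, and nuclei were counted. Relative viability is the nuclei count for treated wells divided by that for vehicle wells, reported as medians of duplicate plates.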

[1] = compound: Cn1nnc2c(C(N)=O)ncn2c1=O [Temozolomide] + Nc1nc2[nH]cc(CCc3ccc(C(=O)N[C@@H](CCC(=O)O)C(=O)O)cc3)c2c(=O)[nH]1 [Pemetrexed] (partner 0.2 µM)
Outline: as §1

[2] = compound: Cn1nnc2c(C(N)=O)ncn2c1=O [Temozolomide] + C[C@@H](Oc1cc(-c2cnn(C3CCNCC3)c2)cnc1N)c1c(Cl)ccc(F)c1Cl [Crizotinib] (partner 1 µM)
Outline: as §1

[3] = compound: Cn1nnc2c(C(N)=O)ncn2c1=O [Temozolomide] + CC1(C)CCC(c2ccc(Cl)cc2)=C(CN2CCN(c3ccc(C(=O)NS(=O)(=O)c4ccc(N[C@H](CCN5CCOCC5)CSc5ccccc5)c(S(=O)(=O)C(F)(F)F)c4)cc3)CC2)C1 [Navitoclax] (partner 0.5 µM)
Outline: as §1

Cell Line | relative viability (AZD5582 + Tozasertib; first compound 0.001581 µM) | relative viability (AZD5582 + Tozasertib; first compound 0.005 µM) | relative viability (AZD5582 + Tozasertib; first compound 0.01581 µM) | relative viability (AZD5582 + Tozasertib; first compound 0.05 µM) | relative viability ([1]; first compound 0.2 µM) | relative viability ([1]; first compound 0.6325 µM) | relative viability ([1]; first compound 2 µM) | relative viability ([1]; first compound 6.325 µM) | relative viability ([1]; first compound 20 µM) | relative viability ([2]; first compound 0.2 µM) | relative viability ([2]; first compound 0.6325 µM) | relative viability ([2]; first compound 2 µM) | relative viability ([2]; first compound 6.325 µM) | relative viability ([2]; first compound 20 µM) | relative viability ([3]; first compound 0.2 µM) | relative viability ([3]; first compound 0.6325 µM) | relative viability ([3]; first compound 2 µM) | relative viability ([3]; first compound 6.325 µM) | relative viability ([3]; first compound 20 µM)
NCI-H1734 | 0.255 | 0.263 | 0.257 | 0.313 | 0.398 | 0.422 | 0.431 | 0.394 | 0.386 | 0.707 | 0.704 | 0.684 | 0.647 | 0.656 | 0.803 | 0.854 | 0.886 | 0.811 | 0.835
NCI-H1755 | 0.523 | 0.652 | 0.599 | 0.587 | 0.433 | 0.43 | 0.388 | 0.39 | 0.612 | 1 | 0.894 | 0.894 | 0.805 | 0.678 | 1.07 | 0.982 | 1.01 | 0.971 | 0.727
NCI-H1915 | 0.379 | 0.452 | 0.447 | 0.42 | 0.55 | 0.491 | 0.545 | 0.429 | 0.321 | 0.922 | 0.816 | 0.754 | 0.597 | 0.342 | 0.797 | 0.754 | 0.684 | 0.495 | 0.305
NCI-H1944 | 0.226 | 0.25 | 0.266 | 0.297 | 0.546 | 0.601 | 0.564 | 0.58 | 0.623 | 0.817 | 1.08 | 1.18 | 1.06 | 0.975 | 0.855 | 1.05 | 1.12 | 1.04 | 0.913
NCI-H1975 | 0.643 | 0.858 | 0.742 | 0.809 | 0.307 | 0.323 | 0.319 | 0.299 | 0.289 | 1.02 | 0.948 | 1.06 | 0.92 | 0.956 | 1.2 | 1.11 | 1.2 | 1.07 | 1.13
NCI-H1993 | 0.599 | 0.681 | 0.547 | 0.567 | 0.517 | 0.669 | 0.598 | 0.569 | 0.525 | 0.779 | 0.85 | 0.876 | 0.94 | 0.703 | 0.823 | 0.893 | 0.889 | 0.879 | 0.804
NCI-H2009 | 0.715 | 0.774 | 0.761 | 0.788 | 1.08 | 1.06 | 1.05 | 1.08 | 1.04 | 1.07 | 1.07 | 1.06 | 1.03 | 1.07 | 1.2 | 1.22 | 1.12 | 1.17 | 1.25
NCI-H2023 | 0.209 | 0.345 | 0.499 | 0.305 | 0.232 | 0.249 | 0.249 | 0.221 | 0.228 | 0.64 | 0.631 | 0.678 | 0.516 | 0.648 | 1.02 | 1 | 1.13 | 0.985 | 0.997
NCI-H2085 | 0.716 | 0.708 | 0.798 | 0.606 | 1.04 | 0.951 | 0.979 | 0.926 | 0.744 | 0.746 | 0.904 | 0.651 | 0.866 | 0.685 | 1.2 | 1.24 | 1.24 | 1.18 | 1.06
NCI-H2087 | 0.23 | 0.218 | 0.319 | 0.289 | 0.624 | 0.667 | 0.663 | 0.676 | 0.696 | 0.898 | 0.74 | 0.892 | 0.803 | 0.871 | 1.15 | 1.05 | 1.02 | 0.891 | 0.965
NCI-H2126 | 0.779 | 0.698 | 0.806 | 0.573 | 0.573 | 0.653 | 0.762 | 0.666 | 0.67 | 1.05 | 0.984 | 0.974 | 1.07 | 1.05 | 0.853 | 0.829 | 0.83 | 0.886 | 0.844
NCI-H2170 | 0.647 | 0.716 | 0.746 | 0.829 | – | 0.283 | 0.264 | 0.253 | 0.237 | – | 1.26 | 1.21 | 0.999 | 0.494 | – | 0.478 | 0.6 | 0.534 | 0.32
NCI-H2228 | 0.191 | 0.27 | 0.333 | 0.161 | 0.383 | 0.349 | 0.348 | 0.266 | 0.352 | 0.529 | 0.536 | 0.466 | 0.399 | 0.369 | 0.921 | 1.43 | 0.951 | 0.857 | 1.26
NCI-H2347 | 0.561 | 0.523 | 0.5 | 0.553 | 0.466 | 0.447 | 0.429 | 0.426 | 0.461 | 0.695 | 0.712 | 0.715 | 0.651 | 0.645 | 0.818 | 0.825 | 0.441 | 0.73 | 0.732
NCI-H2405 | 0.74 | 0.813 | 0.708 | 0.85 | 1.08 | 1.03 | 1.14 | 1.03 | 0.965 | 0.882 | 0.863 | 0.955 | 0.771 | 0.822 | 0.34 | 0.775 | 0.995 | 0.73 | 0.82
NCI-H3122 | 0.157 | 0.178 | 0.477 | 0.121 | 0.187 | 0.205 | 0.188 | 0.196 | 0.193 | 0.291 | 0.281 | 0.324 | 0.264 | 0.235 | 1.05 | 1.03 | 1.08 | 1.01 | 0.976
PC-3 [JPC-3] | 0.775 | 0.909 | 0.804 | 0.42 | 1.22 | 1.13 | 1.16 | 1.06 | 0.458 | 0.993 | 0.951 | 1.03 | 0.974 | 0.458 | 0.725 | 0.847 | 0.784 | 0.82 | 0.364
PC-14 | 0.521 | 0.595 | 0.558 | 0.6 | 0.138 | 0.12 | 0.138 | 0.145 | 0.14 | 0.954 | 0.902 | 0.829 | 0.812 | 0.732 | 1.07 | 1.01 | 1.06 | 0.956 | 0.928
RERF-LC-KJ | – | – | 0.431 | 0.259 | 0.484 | 0.507 | 0.486 | 0.464 | 0.461 | 0.884 | 0.848 | 0.838 | 0.818 | 0.833 | 1.04 | 0.884 | 0.928 | 0.951 | 1.06
SK-LU-1 | 0.229 | 0.205 | 0.343 | 0.13 | 1.06 | 1.01 | 0.875 | 0.495 | 0.522 | 0.978 | 1.06 | 0.92 | 0.518 | 0.463 | 1.03 | 0.88 | 0.8 | 0.522 | 0.189
SK-MES-1 | 0.771 | 0.785 | 0.888 | 0.805 | 1.01 | 0.911 | 0.975 | 0.92 | 0.866 | 1.14 | 0.969 | 1.03 | 0.947 | 0.997 | 1.22 | 1.16 | 1.23 | 1.22 | 1.38
SW 1573 | 0.188 | 0.192 | 0.164 | 0.255 | 0.907 | 0.833 | 0.845 | 0.867 | 0.846 | 0.801 | 0.787 | 0.82 | 0.594 | 0.846 | 0.993 | 1.03 | 1.05 | 1 | 0.935
UMC-11 | 0.207 | 0.203 | 0.196 | 0.203 | 0.758 | 0.712 | 0.835 | 0.805 | 0.588 | 0.774 | 0.646 | 0.692 | 0.632 | 0.333 | 0.338 | 0.315 | 0.313 | 0.281 | 0.274
